# Assay results: ChEMBL document CHEMBL5727416, “Bicyclic heteroarylaminoalkyl phenyl derivatives as PI3K inhibitors” (2019)
# Target: T1, Phosphatidylinositol 4,5-bisphosphate 3-kinase catalytic subunit delta isoform (Homo sapiens, UniProt O00329)
# T1 sequence (O00329 whole entry): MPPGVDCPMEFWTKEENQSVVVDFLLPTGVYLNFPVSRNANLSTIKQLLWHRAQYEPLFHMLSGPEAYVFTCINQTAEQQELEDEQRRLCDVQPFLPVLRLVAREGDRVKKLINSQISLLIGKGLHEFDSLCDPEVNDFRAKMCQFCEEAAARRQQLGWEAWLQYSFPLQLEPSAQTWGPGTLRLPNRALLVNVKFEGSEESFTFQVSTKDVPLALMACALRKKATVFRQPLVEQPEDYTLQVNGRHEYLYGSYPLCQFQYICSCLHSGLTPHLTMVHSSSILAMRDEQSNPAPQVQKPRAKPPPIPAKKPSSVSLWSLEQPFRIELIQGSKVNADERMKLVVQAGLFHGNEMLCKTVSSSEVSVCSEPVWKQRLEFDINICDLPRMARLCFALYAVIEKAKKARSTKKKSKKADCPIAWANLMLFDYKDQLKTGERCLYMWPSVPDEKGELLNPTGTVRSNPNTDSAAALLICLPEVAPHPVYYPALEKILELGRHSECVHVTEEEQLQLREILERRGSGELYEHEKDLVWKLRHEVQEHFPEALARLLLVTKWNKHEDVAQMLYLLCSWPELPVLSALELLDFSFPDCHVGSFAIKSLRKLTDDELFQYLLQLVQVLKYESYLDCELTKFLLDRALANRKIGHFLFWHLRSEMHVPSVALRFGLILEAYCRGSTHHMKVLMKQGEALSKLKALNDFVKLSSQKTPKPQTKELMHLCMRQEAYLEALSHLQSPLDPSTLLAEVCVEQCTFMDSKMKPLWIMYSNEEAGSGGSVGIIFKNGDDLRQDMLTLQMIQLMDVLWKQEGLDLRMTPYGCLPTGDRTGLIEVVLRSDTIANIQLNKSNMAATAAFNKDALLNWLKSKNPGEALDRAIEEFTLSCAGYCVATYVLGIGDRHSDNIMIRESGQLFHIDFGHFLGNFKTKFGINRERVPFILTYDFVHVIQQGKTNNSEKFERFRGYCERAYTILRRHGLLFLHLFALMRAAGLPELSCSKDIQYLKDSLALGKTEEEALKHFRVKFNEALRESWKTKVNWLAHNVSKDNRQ
# Experiment: Scintillation Proximity Assay: PI3Kδ:The kinase reaction was conducted in polystyrene 384-well matrix white plate from Thermo Fisher Scientific in a final volume of 25 μL. Inhibitors were first diluted serially in DMSO and added to the plate wells before the addition of other reaction components. The final concentration of DMSO in the assay was 0.5%. The PI3K assays were carried out at room temperature in 20 mM MOPS, pH 6.7, 10 mM MgCl2, 5 mM DTT and CHAPS 0.03%. Reactions were initiated by the addition of ATP, the final reaction mixture consisted of 20 μM PIP2, 20 μM ATP, 0.2 μCi [γ-33P] ATP, 4 nM PI3Kδ. Reactions were incubated for 210 min and terminated by the addition of 40 μL SPA beads suspended in quench buffer: 150 mM potassium phosphate pH 8.0, 20% glycerol. 25 mM EDTA, 400 μM ATP. The final concentration of SPA beads was 1.0 mg/mL. After the plate sealing, plates were shaken overnight at room temperature and centrifuged at 1800 rpm for 10 minutes, the radioactivity of the product was determined by scintillation counting on Topcount (Perkin-Elmer).
structure (smiles),measurement,value
N#CCC(C1CCN(c2nc3cccnc3o2)C1)n1cc(-c2ncnc3[nH]ccc23)cn1 (stereo unspecified),IC50,< 10 nM
